For assay [1], the target named is anaerobic (class III) ribonucleotide reductase from Thermotoga maritima (Thermotoga maritima). Nature of the assay: crystal structure; tmNrdD dimer in the asymmetric unit, space group P2_(1); apo forms with glycerol, MES or citrate in the active site, and complexes with dATP or dATP/CTP; resolutions from 2.4 Å to 1.92 Å.
The target in the next assay is T1, tmNrdD (Thermotoga maritima, UniProt Q9WYL6).
T1 construct: gene TM_0385; recombinant in E. coli, homodimer; residues to 651, Gly621 radical site
Nature of the assay: X-ray crystallography. Format: binding.

Experimental findings from PMC4493059, “The Crystal Structure of Thermotoga maritima Class III Ribonucleotide Reductase Lacks a Radical Cysteine Pre-Positioned in the Active Site” (PLoS ONE, 2015) are described below.

T1 sequence (Q9WYL6 entry or part of it): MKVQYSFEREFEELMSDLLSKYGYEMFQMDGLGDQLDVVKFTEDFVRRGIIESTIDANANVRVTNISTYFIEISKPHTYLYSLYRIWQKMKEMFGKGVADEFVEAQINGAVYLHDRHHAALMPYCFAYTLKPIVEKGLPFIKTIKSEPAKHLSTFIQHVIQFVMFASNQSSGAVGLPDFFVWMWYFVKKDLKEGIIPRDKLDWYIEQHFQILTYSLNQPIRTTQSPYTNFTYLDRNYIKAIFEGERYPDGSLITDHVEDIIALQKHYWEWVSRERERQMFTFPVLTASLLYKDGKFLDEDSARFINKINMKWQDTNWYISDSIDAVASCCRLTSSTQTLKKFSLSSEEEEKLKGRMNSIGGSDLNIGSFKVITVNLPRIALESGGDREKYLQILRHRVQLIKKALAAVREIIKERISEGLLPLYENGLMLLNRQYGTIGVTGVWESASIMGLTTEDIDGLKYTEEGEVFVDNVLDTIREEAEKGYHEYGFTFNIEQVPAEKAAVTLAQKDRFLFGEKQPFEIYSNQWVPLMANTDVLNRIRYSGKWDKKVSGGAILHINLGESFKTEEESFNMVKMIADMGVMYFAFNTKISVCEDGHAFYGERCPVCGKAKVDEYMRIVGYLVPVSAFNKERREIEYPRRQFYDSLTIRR

The term stoichiometry N denotes the number of molecules, sites or subunits per partner or assembly. The molecule “anaerobic (class III) ribonucleotide reductase from Thermotoga maritima (enzyme)” registered a stoichiometry N in assay [1] of 2.

As to `Nc1ncnc2c1ncn2[C@H]1C[C@H](O)[C@@H](COP(=O)(O)OP(=O)(O)OP(=O)(O)O)O1` [dATP], the X-ray crystallography result at tmNrdD (allosteric specificity effector site at dimer interface, Mg2+ (Mn2+ substituted), dATP alone 4COL, also with CTP 4COJ, soak or co-crystal 0.5 mM dATP) was “The effector dATP binds at the dimer interface, along the length of helices αA and αB”.

As to `Nc1ccn([C@@H]2O[C@H](COP(=O)(O)OP(=O)(O)OP(=O)(O)O)[C@@H](O)[C@H]2O)c(=O)n1` [CTP], on tmNrdD (active site, with effector dATP, soak or co-crystal 2 mM CTP, also reduced to dCTP in assay with MBP-tmNrdG and T. maritima cell extract), the X-ray crystallography result is recorded as “represents the first structure of an anaerobic, class III RNR with a substrate”.
